Numbers after ± are expanded uncertainties.
Legend:
[1] = 101.33 kPa, Liquid, Vibrating tube method
[2] = relative permittivity at zero frequency (dimensionless); conditions: 101.33 kPa, Liquid, AC method
[3] = xn = mol fraction of the nth substance listed; conditions: 101.3 kPa, Liquid, Vibrating tube method
[4] = relative permittivity at zero frequency (dimensionless); xn = mol fraction of the nth substance listed; conditions: 101.3 kPa, Liquid, AC Method

COCCOCCOCCOCCOC [2,5,8,11,14-pentaoxapentadecane]
Conditions | mass density, 288.15 K [kg/m3] | mass density, 298.15 K [kg/m3] | mass density, 308.15 K [kg/m3] | relative permittivity at zero frequency, 288.15 K | relative permittivity at zero frequency, 298.15 K | relative permittivity at zero frequency, 308.15 K
[1] | 1015.96 ± 0.3 | 1006.68 ± 0.29 | 997.27 ± 0.29 | – | – | –
[2] | – | – | – | 8.04 ± 0.16 | 7.78 ± 0.16 | 7.55 ± 0.15

COCCOCCOCCOC [2,5,8,11-tetraoxadodecane] + CCCCCCC
Conditions | mass density [kg/m3] | relative permittivity at zero frequency
[3], 288.15 K, x2 = 0.0478 | 977.7 ± 0.3 | –
[3], 288.15 K, x2 = 0.1018 | 963.5 ± 0.3 | –
[3], 288.15 K, x2 = 0.2008 | 936.93 ± 0.3 | –
[3], 288.15 K, x2 = 0.3046 | 908.26 ± 0.3 | –
[3], 288.15 K, x2 = 0.4046 | 879.55 ± 0.3 | –
[3], 288.15 K, x2 = 0.502 | 850.68 ± 0.3 | –
[3], 288.15 K, x2 = 0.5988 | 821.04 ± 0.3 | –
[3], 288.15 K, x2 = 0.6937 | 791 ± 0.3 | –
[3], 288.15 K, x2 = 0.7981 | 756.91 ± 0.31 | –
[3], 288.15 K, x2 = 0.8992 | 722.88 ± 0.31 | –
[3], 288.15 K, x2 = 0.9471 | 706.43 ± 0.31 | –
[3], 298.15 K, x2 = 0.0478 | 968.24 ± 0.3 | –
[3], 298.15 K, x2 = 0.1018 | 954.08 ± 0.3 | –
[3], 298.15 K, x2 = 0.2008 | 927.56 ± 0.3 | –
[3], 298.15 K, x2 = 0.3046 | 898.85 ± 0.3 | –
[3], 298.15 K, x2 = 0.4046 | 870.31 ± 0.3 | –
[3], 298.15 K, x2 = 0.502 | 841.51 ± 0.3 | –
[3], 298.15 K, x2 = 0.5988 | 811.96 ± 0.3 | –
[3], 298.15 K, x2 = 0.6937 | 782.03 ± 0.3 | –
[3], 298.15 K, x2 = 0.7981 | 748.1 ± 0.31 | –
[3], 298.15 K, x2 = 0.8992 | 714.23 ± 0.31 | –
[3], 298.15 K, x2 = 0.9471 | 697.88 ± 0.31 | –
[3], 308.15 K, x2 = 0.0478 | 958.76 ± 0.3 | –
[3], 308.15 K, x2 = 0.1018 | 944.65 ± 0.3 | –
[3], 308.15 K, x2 = 0.2008 | 918.17 ± 0.3 | –
[3], 308.15 K, x2 = 0.3046 | 889.51 ± 0.3 | –
[3], 308.15 K, x2 = 0.4046 | 861.04 ± 0.3 | –
[3], 308.15 K, x2 = 0.502 | 832.28 ± 0.3 | –
[3], 308.15 K, x2 = 0.5988 | 802.84 ± 0.3 | –
[3], 308.15 K, x2 = 0.6937 | 773 ± 0.3 | –
[3], 308.15 K, x2 = 0.7981 | 739.22 ± 0.31 | –
[3], 308.15 K, x2 = 0.8992 | 705.5 ± 0.31 | –
[3], 308.15 K, x2 = 0.9471 | 689.25 ± 0.31 | –
[4], 288.15 K, x2 = 0.0502 | – | 7.53 ± 0.15
[4], 288.15 K, x2 = 0.0996 | – | 7.18 ± 0.14
[4], 288.15 K, x2 = 0.2037 | – | 6.44 ± 0.13
[4], 288.15 K, x2 = 0.3128 | – | 5.7 ± 0.11
[4], 288.15 K, x2 = 0.3994 | – | 5.13 ± 0.1
[4], 288.15 K, x2 = 0.5007 | – | 4.49 ± 0.09
[4], 288.15 K, x2 = 0.6027 | – | 3.88 ± 0.08
[4], 288.15 K, x2 = 0.7014 | – | 3.32 ± 0.07
[4], 288.15 K, x2 = 0.8007 | – | 2.81 ± 0.06
[4], 288.15 K, x2 = 0.8993 | – | 2.35 ± 0.05
[4], 288.15 K, x2 = 0.9502 | – | 2.14 ± 0.04
[4], 298.15 K, x2 = 0.0511 | – | 7.28 ± 0.15
[4], 298.15 K, x2 = 0.0992 | – | 6.94 ± 0.14
[4], 298.15 K, x2 = 0.2012 | – | 6.26 ± 0.13
[4], 298.15 K, x2 = 0.3025 | – | 5.59 ± 0.11
[4], 298.15 K, x2 = 0.4095 | – | 4.91 ± 0.1
[4], 298.15 K, x2 = 0.5014 | – | 4.36 ± 0.09
[4], 298.15 K, x2 = 0.6006 | – | 3.79 ± 0.08
[4], 298.15 K, x2 = 0.6989 | – | 3.26 ± 0.07
[4], 298.15 K, x2 = 0.7898 | – | 2.81 ± 0.06
[4], 298.15 K, x2 = 0.902 | – | 2.31 ± 0.05
[4], 298.15 K, x2 = 0.9501 | – | 2.11 ± 0.04
[4], 308.15 K, x2 = 0.0504 | – | 7.04 ± 0.14
[4], 308.15 K, x2 = 0.1008 | – | 6.71 ± 0.13
[4], 308.15 K, x2 = 0.2074 | – | 6.01 ± 0.12
[4], 308.15 K, x2 = 0.3092 | – | 5.37 ± 0.11
[4], 308.15 K, x2 = 0.4042 | – | 4.8 ± 0.1
[4], 308.15 K, x2 = 0.5048 | – | 4.22 ± 0.08
[4], 308.15 K, x2 = 0.6022 | – | 3.69 ± 0.07
[4], 308.15 K, x2 = 0.7071 | – | 3.15 ± 0.06
[4], 308.15 K, x2 = 0.801 | – | 2.7 ± 0.05
[4], 308.15 K, x2 = 0.9016 | – | 2.28 ± 0.05
[4], 308.15 K, x2 = 0.9514 | – | 2.09 ± 0.04

COCCOCCOCCOCCOC [2,5,8,11,14-pentaoxapentadecane] + CCCCCCC
Conditions | mass density, [3] [kg/m3] | relative permittivity at zero frequency, [4]
288.15 K, x2 = 0.0498 | – | 7.74 ± 0.15
288.15 K, x2 = 0.0505 | 1004.42 ± 0.3 | –
288.15 K, x2 = 0.0975 | 993.3 ± 0.3 | –
288.15 K, x2 = 0.0999 | – | 7.42 ± 0.15
288.15 K, x2 = 0.1982 | 968.25 ± 0.3 | –
288.15 K, x2 = 0.2001 | – | 6.79 ± 0.14
288.15 K, x2 = 0.3 | 941.07 ± 0.3 | 6.15 ± 0.12
288.15 K, x2 = 0.3985 | – | 5.52 ± 0.11
288.15 K, x2 = 0.4 | 912.66 ± 0.3 | –
288.15 K, x2 = 0.5009 | 881.97 ± 0.3 | –
288.15 K, x2 = 0.5076 | – | 4.82 ± 0.1
288.15 K, x2 = 0.6017 | 848.59 ± 0.3 | –
288.15 K, x2 = 0.6033 | – | 4.2 ± 0.08
288.15 K, x2 = 0.6931 | 816.13 ± 0.3 | –
288.15 K, x2 = 0.7044 | – | 3.58 ± 0.07
288.15 K, x2 = 0.7998 | 775.06 ± 0.31 | –
288.15 K, x2 = 0.8028 | – | 2.99 ± 0.06
288.15 K, x2 = 0.8972 | 734.27 ± 0.31 | –
288.15 K, x2 = 0.8985 | – | 2.45 ± 0.05
288.15 K, x2 = 0.8994 | – | 2.45 ± 0.05
288.15 K, x2 = 0.9466 | 712.33 ± 0.31 | –
288.15 K, x2 = 0.9495 | – | 2.19 ± 0.04
298.15 K, x2 = 0.0496 | – | 7.49 ± 0.15
298.15 K, x2 = 0.0499 | 995.11 ± 0.3 | –
298.15 K, x2 = 0.0996 | 983.28 ± 0.3 | –
298.15 K, x2 = 0.1016 | – | 7.19 ± 0.14
298.15 K, x2 = 0.1994 | – | 6.58 ± 0.13
298.15 K, x2 = 0.1995 | 958.5 ± 0.3 | –
298.15 K, x2 = 0.2961 | 932.8 ± 0.3 | –
298.15 K, x2 = 0.299 | – | 5.97 ± 0.12
298.15 K, x2 = 0.4031 | 902.6 ± 0.3 | –
298.15 K, x2 = 0.406 | – | 5.31 ± 0.11
298.15 K, x2 = 0.4975 | 873.81 ± 0.3 | –
298.15 K, x2 = 0.5037 | – | 4.7 ± 0.09
298.15 K, x2 = 0.6024 | – | 4.1 ± 0.08
298.15 K, x2 = 0.6043 | 838.65 ± 0.3 | –
298.15 K, x2 = 0.6975 | 805.52 ± 0.3 | –
298.15 K, x2 = 0.7027 | – | 3.51 ± 0.07
298.15 K, x2 = 0.8001 | – | 2.95 ± 0.06
298.15 K, x2 = 0.8006 | 765.91 ± 0.31 | –
298.15 K, x2 = 0.8982 | 725.23 ± 0.31 | –
298.15 K, x2 = 0.9013 | – | 2.41 ± 0.05
298.15 K, x2 = 0.948 | 703.4 ± 0.31 | –
298.15 K, x2 = 0.9499 | – | 2.16 ± 0.04
308.15 K, x2 = 0.0469 | 986.65 ± 0.3 | –
308.15 K, x2 = 0.0503 | – | 7.25 ± 0.15
308.15 K, x2 = 0.0979 | 974.59 ± 0.3 | –
308.15 K, x2 = 0.1003 | – | 6.95 ± 0.14
308.15 K, x2 = 0.1976 | 949.94 ± 0.3 | –
308.15 K, x2 = 0.201 | – | 6.36 ± 0.13
308.15 K, x2 = 0.2944 | 924.23 ± 0.3 | –
308.15 K, x2 = 0.2949 | – | 5.82 ± 0.12
308.15 K, x2 = 0.3006 | 922.61 ± 0.3 | –
308.15 K, x2 = 0.3924 | – | 5.24 ± 0.1
308.15 K, x2 = 0.404 | 893.13 ± 0.3 | –
308.15 K, x2 = 0.4956 | 865.23 ± 0.3 | –
308.15 K, x2 = 0.5048 | – | 4.58 ± 0.09
308.15 K, x2 = 0.6018 | 830.49 ± 0.3 | –
308.15 K, x2 = 0.6066 | – | 3.98 ± 0.08
308.15 K, x2 = 0.6965 | 796.89 ± 0.31 | –
308.15 K, x2 = 0.7117 | – | 3.38 ± 0.07
308.15 K, x2 = 0.7981 | 758.07 ± 0.31 | –
308.15 K, x2 = 0.7999 | – | 2.9 ± 0.06
308.15 K, x2 = 0.8986 | 716.39 ± 0.31 | –
308.15 K, x2 = 0.8988 | – | 2.38 ± 0.05
308.15 K, x2 = 0.9479 | 694.69 ± 0.32 | –
308.15 K, x2 = 0.9491 | – | 2.14 ± 0.04

COCCOCCOCCOC [2,5,8,11-tetraoxadodecane]
Conditions | mass density, 288.15 K [kg/m3] | mass density, 298.15 K [kg/m3] | mass density, 308.15 K [kg/m3] | relative permittivity at zero frequency, 288.15 K | relative permittivity at zero frequency, 298.15 K | relative permittivity at zero frequency, 308.15 K
[1] | 990.08 ± 0.29 | 980.58 ± 0.29 | 971.07 ± 0.29 | – | – | –
[2] | – | – | – | 7.89 ± 0.16 | 7.63 ± 0.15 | 7.38 ± 0.15

Reference: the NIST ThermoML archive (doi:10.1016/j.jct.2010.09.008)
